Experimental findings from US20110182850A1, “ORGANIC COMPOUNDS AND THEIR USES” (priority 2009, published 2011) are described below.

The target in this assay is T1, HCV NS3-4A serine protease (full-length NS3-4A protein, genotype 1a, strain HCV-1) (Hepatitis C virus genotype 1a, UniProt P26664).
T1 construct: using the full-length NS3-4A protein (genotype 1a, strain HCV-1)
T1 sequence (P26664 1658-1711): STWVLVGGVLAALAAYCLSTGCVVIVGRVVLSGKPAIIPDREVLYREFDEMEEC
T1 sequence (P26664 1027-1657): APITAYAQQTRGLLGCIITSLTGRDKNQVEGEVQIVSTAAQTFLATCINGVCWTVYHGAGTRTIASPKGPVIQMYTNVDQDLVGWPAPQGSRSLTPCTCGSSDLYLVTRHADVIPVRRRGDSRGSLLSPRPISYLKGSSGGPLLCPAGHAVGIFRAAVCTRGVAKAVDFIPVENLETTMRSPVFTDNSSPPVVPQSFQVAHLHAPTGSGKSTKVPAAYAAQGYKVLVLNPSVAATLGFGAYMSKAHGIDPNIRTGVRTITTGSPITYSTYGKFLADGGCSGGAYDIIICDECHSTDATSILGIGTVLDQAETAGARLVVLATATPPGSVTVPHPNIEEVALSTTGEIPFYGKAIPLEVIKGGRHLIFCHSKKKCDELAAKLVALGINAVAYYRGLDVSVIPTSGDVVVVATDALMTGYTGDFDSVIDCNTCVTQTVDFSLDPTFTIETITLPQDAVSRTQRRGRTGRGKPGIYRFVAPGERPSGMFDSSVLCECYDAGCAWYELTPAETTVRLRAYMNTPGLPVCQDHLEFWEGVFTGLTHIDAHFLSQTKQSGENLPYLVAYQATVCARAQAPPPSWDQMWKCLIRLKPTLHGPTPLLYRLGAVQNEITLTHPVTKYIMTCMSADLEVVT
The experiment in a line: HCV NS3-4A protease assay. In kind it is biochemical. The settings on record: Protease IC50. As for the experimental part:
The inhibitory activity of certain compounds of Table A against HCV NS3-4A serine protease is determined in a homogenous assay using the full-length NS3-4A protein (genotype 1a, strain HCV-1) and a commercially available internally-quenched fluorogenic peptide substrate as described by Taliani, M., et al. 1996 Anal. Biochem. 240:60-67, which is incorporated by reference in its entirety.
What is called IC50 is the concentration needed to halve the response being measured. Read a low IC50 as greater potency. The compound `CC(C)N1CCCC[C@H]1C(=O)N[C@H](C(=O)N[C@H](C(=O)N1C[C@]2(C[C@H]1C(=O)NC1(C(=O)NS(=O)(=O)C3CC3)CCCC1)C(C)(C)C21CCC1)C(C)(C)C)C1CCCCC1` [Compound 84, (5R,8S)-7-[(2S)-2-{[(2S)-2-cyclohexyl-2-({[(2S)-1-isopropylpiperidin-2-yl]carbonyl}amino)acetyl]amino}-3,3-dimethylbutanoyl]-N-{1-[(cyclopropylsulfonyl)carba-moyl]cyclopentyl}-10,10-dimethyl-7-azadispiro[3.0.4.1]decane-8-carboxamide] had an IC50 of 100 nM.
Under `C=CCC(C)(NC(=O)[C@@H]1C[C@@]2(CN1C(=O)[C@@H](NC(=O)[C@@H](NC(=O)[C@@H]1CCCCN1C(C)C)C(C)(C)C)C(C)(C)C)C(C)(C)C21CCC1)C(=O)NS(=O)(=O)C1CC1` (stereo partly drawn) [Compound 85, (5R,8S)-N-{1-[(cyclopropylsulfonyl)carba-moyl]-1-methylbut-3-en-1-yl}-7-[(2S)-2-{[(2S)-2-({[(2S)-1-isopropylpiperidin-2-yl]carbonyl}amino)-3,3-dimethylbutanoyl]amino}-3,3-dimethylbutanoyl]-10,10-dimethyl-7-azadispiro[3.0.4.1]decane-8-carboxamide] stands 7630 nM; under `C=CCC(C)(NC(=O)[C@@H]1C[C@@]2(CN1C(=O)[C@@H](NC(=O)[C@@H](NC(=O)[C@@H]1CCCCN1C(C)C)C(C)(C)C)C(C)(C)C)C(C)(C)C21CCC1)C(=O)NS(=O)(=O)C1CC1` (stereo partly drawn) [Compound 86, (5R,8S)-N-{1-[(cyclopropylsulfonyl)carba-moyl]-1-methylbut-3-en-1-yl}-7-[(2S)-2-{[(2S)-2-({[(2S)-1-isopropylpiperidin-2-yl]carbonyl}amino)-3,3-dimethylbutanoyl]amino}-3,3-dimethylbutanoyl]-10,10-dimethyl-7-azadispiro[3.0.4.1]decane-8-carboxamide], 4050 nM.
As for `C=C[C@@H]1C[C@]1(NC(=O)[C@@H]1C[C@@]2(CN1C(=O)C(NC(=O)[C@@H](NC(=O)c1cnccn1)C1CCCCC1)C(C)(C)C)C(C)(C)C21CCC1)C(=O)NS(=O)(=O)C1CC1` (stereo partly drawn) [Compound 87, (5R,8S)-7-[2-({(2S)-2-cyclohexyl-2-[(pyrazin-2-ylcarbonyl)amino]acetyl}amino)-3,3-dimethylbutanoyl]-N-{(1R,2S)-1-[(cyclopropylsulfonyl)carba-moyl]-2-vinylcyclopropyl}-10,10-dimethyl-7-azadispiro[3.0.4.1]decane-8-carboxamide], 2.5 nM corresponded to half-maximal inhibition (IC50). Compared with the last compound, the IC50 is about 1600-fold lower.
Under `C=C[C@@H]1C[C@]1(NC(=O)[C@@H]1C[C@@]2(CN1C(=O)[C@@H](NC(=O)[C@@H](NC(=O)c1cnccn1)C1CCCCC1)C(C)(C)C)C(C)(C)C21CCC1)C(=O)NS(=O)(=O)C1CC1` [Compound 88, (5R,8S)-7-[(2S)-2-({(2S)-2-cyclohexyl-2-[(pyrazin-2-ylcarbonyl)amino]acetyl}amino)-3,3-dimethylbutanoyl]-N-{(1R,2S)-1-[(cyclopropylsulfonyl)carba-moyl]-2-vinylcyclopropyl}-10,10-dimethyl-7-azadispiro[3.0.4.1]decane-8-carboxamide] stands 0.8 nM.
As for `C=C[C@@H]1C[C@]1(NC(=O)[C@@H]1C[C@@]2(CN1C(=O)[C@@H](NC(=O)[C@@H](NC(=O)C(C)(C)N1CCCC1)C1CCCCC1)C(C)(C)C)C(C)(C)C21CCC1)C(=O)NS(=O)(=O)C1CC1` [Compound 89, (5R,8S)-7-[(2S)-2-({(2S)-2-cyclohexyl-2-[(2-methyl-2-pyrrolidin-1-ylpropanoyl)amino]acetyl}amino)-3,3-dimethylbutanoyl]-N-{(1R,2S)-1-[(cyclopropylsulfonyl)carba-moyl]-2-vinylcyclopropyl}-10,10-dimethyl-7-azadispiro[3.0.4.1]decane-8-carboxamide], the figure is 0.8 nM.
With `C=C[C@@H]1C[C@]1(NC(=O)[C@@H]1C[C@@]2(CN1C(=O)[C@@H](NC(=O)[C@@H](NC(=O)[C@@H]1CCCN(CC)C1)C1CCCCC1)C(C)(C)C)C(C)(C)C21CCC1)C(=O)NS(=O)(=O)C1CC1` [Compound 90, (5R,8S)-7-[(2S)-2-{[(2S)-2-cyclohexyl-2-({[(3R)-1-ethylpiperidin-3-yl]carbonyl}amino)acetyl]amino}-3,3-dimethylbutanoyl]-N-{(1R,2S)-1-[(cyclopropylsulfonyl)carba-moyl]-2-vinylcyclopropyl}-10,10-dimethyl-7-azadispiro[3.0.4.1]decane-8-carboxamide], the IC50 was 0.7 nM. This IC50 and that of the compound before are within 1.5-fold of each other.
Regarding `CC[C@@H]1C[C@]1(NC(=O)[C@@H]1C[C@@]2(CN1C(=O)[C@@H](NC(=O)[C@@H](NC(=O)[C@@H]1CCCCN1C(C)C)C(C)(C)C)C(C)(C)C)C(C)(C)C21CCC1)C(=O)NS(=O)(=O)C1CC1` [Compound 91, (5R,8S)-N-{(1R,2R)-1-[(cyclopropylsulfonyl)carba-moyl]-2-ethylcyclopropyl}-7-[(2S)-2-{[(2S)-2-({[(2S)-1-isopropylpiperidin-2-yl]carbonyl}amino)-3,3-dimethylbutanoyl]amino}-3,3-dimethylbutanoyl]-10,10-dimethyl-7-azadispiro[3.0.4.1]decane-8-carboxamide], it took 3.5 nM to reach half-maximal inhibition (IC50).
As for `C=C[C@@H]1C[C@]1(NC(=O)[C@@H]1C[C@@]2(CN1C(=O)[C@@H](NC(=O)[C@@H](NC(=O)[C@@H]1CCCCN1C(C)C)C1CCCCC1)C(C)(C)C)C(C)(C)C21CCC1)C(=O)NS(=O)(=O)C1CC1` [Compound 92, (5R,8S)-7-[(2S)-2-{[(2S)-2-cyclohexyl-2-({[(2S)-1-isopropylpiperidin-2-yl]carbonyl}amino)acetyl]amino}-3,3-dimethylbutanoyl]-N-{(1R,2S)-1-[(cyclopropylsulfonyl)carba-moyl]-2-vinylcyclopropyl}-10,10-dimethyl-7-azadispiro[3.0.4.1]decane-8-carboxamide], the figure is 0.4 nM.
The compound `C=C[C@@H]1C[C@]1(NC(=O)[C@@H]1C[C@@]2(CN1C(=O)[C@@H](NC(=O)[C@@H](NC(=O)C1CCCCN1C(C)C)C(C)(C)C)C(C)(C)C)C(C)(C)C21CCC1)C(=O)NS(=O)(=O)C(C)(C)C` (stereo partly drawn) [Compound 93, (5R,8S)-N-{(1R,2S)-1-[(tert-butylsulfonyl)carbamoyl]-2-vinylcyclopropyl}-7-[(2S)-2-{[(2S)-2-{[(1-isopropylpiperidin-2-yl)carbonyl]amino}-3,3-dimethylbutanoyl]amino}-3,3-dimethylbutanoyl]-10,10-dimethyl-7-azadispiro[3.0.4.1]decane-8-carboxamide] had an IC50 of 8 nM.
Consider `C=C[C@@H]1C[C@]1(NC(=O)[C@@H]1C[C@@]2(CN1C(=O)[C@@H](NC(=O)[C@@H](NC(=O)C1CCCCN1C(C)C)C(C)(C)C)C(C)(C)C)C(C)(C)C21CCC1)C(=O)NS(C)(=O)=O` (stereo partly drawn) [Compound 94, (5R,8S)-7-[(2S)-2-{[(2S)-2-{[(1-isopropylpiperidin-2-yl)carbonyl]amino}-3,3-dimethylbutanoyl]amino}-3,3-dimethylbutanoyl]-10,10-dimethyl-N-{(1R,2S)-1-[(methylsulfonyl)carbamoyl]-2-vinylcyclopropyl}-7-azadispiro[3.0.4.1]decane-8-carboxamide], for which half-maximal inhibition (IC50) was put at 10 nM.
`C=C[C@@H]1C[C@]1(NC(=O)[C@@H]1C[C@@]2(CN1C(=O)[C@@H](NC(=O)[C@@H](NC(=O)c1cccnc1)C1CCCCC1)C(C)(C)C)C(C)(C)C21CCC1)C(=O)NS(=O)(=O)C1CC1` [Compound 95, (5R,8S)-7-[(2S)-2-({(2S)-2-cyclohexyl-2-[(pyridin-3-ylcarbonyl)amino]acetyl}amino)-3,3-dimethylbutanoyl]-N-{(1R,2S)-1-[(cyclopropylsulfonyl)carba-moyl]-2-vinylcyclopropyl}-10,10-dimethyl-7-azadispiro[3.0.4.1]decane-8-carboxamide] returned an IC50 of 0.9 nM. Against the preceding compound, the IC50 is about 11-fold lower.
`C=C[C@@H]1C[C@]1(NC(=O)[C@@H]1C[C@@]2(CN1C(=O)[C@@H](NC(=O)[C@@H](NC(=O)c1ccncc1)C1CCCCC1)C(C)(C)C)C(C)(C)C21CCC1)C(=O)NS(=O)(=O)C1CC1` [Compound 96, (5R,8S)-7-[(2S)-2-{[(2S)-2-cyclohexyl-2-(isonicotinoylamino)acetyl]amino}-3,3-dimethylbutanoyl]-N-{(1R,2S)-1-[(cyclopropylsulfonyl)carba-moyl]-2-vinylcyclopropyl}-10,10-dimethyl-7-azadispiro[3.0.4.1]decane-8-carboxamide] had an IC50 of 1 nM.
Compound `C=C[C@@H]1C[C@]1(NC(=O)[C@@H]1C[C@@]2(CN1C(=O)[C@@H](NC(=O)[C@@H](NC(=O)c1ccccn1)C1CCCCC1)C(C)(C)C)C(C)(C)C21CCC1)C(=O)NS(=O)(=O)C1CC1` [Compound 97, (5R,8S)-7-[(2S)-2-({(2S)-2-cyclohexyl-2-[(pyridin-2-ylcarbonyl)amino]acetyl}amino)-3,3-dimethylbutanoyl]-N-{(1R,2S)-1-[(cyclopropylsulfonyl)carba-moyl]-2-vinylcyclopropyl}-10,10-dimethyl-7-azadispiro[3.0.4.1]decane-8-carboxamide] registered an IC50 of 1 nM.
Turning to `C=C[C@@H]1C[C@]1(NC(=O)[C@@H]1C[C@@]2(CN1C(=O)[C@@H](NC(=O)[C@@H](NC(=O)c1ccccc1)C1CCCCC1)C(C)(C)C)C(C)(C)C21CCC1)C(=O)NS(=O)(=O)C1CC1` [Compound 98, (5R,8S)-7-[(2S)-2-{[(2S)-2-(benzoylamino)-2-cyclohexylacetyl]amino}-3,3-dimethylbutanoyl]-N-{(1R,2S)-1-[(cyclopropylsulfonyl)carba-moyl]-2-vinylcyclopropyl}-10,10-dimethyl-7-azadispiro[3.0.4.1]decane-8-carboxamide], the IC50 was 1.5 nM.
`C=C[C@@H]1C[C@]1(NC(=O)[C@@H]1C[C@@]2(CN1C(=O)[C@@H](NC(=O)[C@@H](NC(C)=O)C1CCCCC1)C(C)(C)C)C(C)(C)C21CCC1)C(=O)NS(=O)(=O)C1CC1` [Compound 99, (5R,8S)-7-[(2S)-2-{[(2S)-2-acetamido-2-cyclohexylacetyl]amino}-3,3-dimethylbutanoyl]-N-{(1R,2S)-1-[(cyclopropylsulfonyl)carba-moyl]-2-vinylcyclopropyl}-10,10-dimethyl-7-azadispiro[3.0.4.1]decane-8-carboxamide]: it took 6 nM to reach half-maximal inhibition (IC50).
